Entries after “also recorded” stand apart in the source; their conditions may differ.
Assays:
[1] = system: 3T3 cells; assay: FACS DNA content: appearance of the 1C (sub-G1) cell population 20 hours after release from G0; type: cell-based, mouse; details: ΔDboxGeminin-expressing cells, 9 μM RO-3306 upon G0/G1 release
Method: (§1) FIG. 31 represents FACS profiles showing the DNA content (propidium iodide staining) of 3T3 cells 20 hours after release from G0 in the presence (+ΔDboxGem) or not (−ΔDboxGem) of doxycycline alone (CTRL—first column) or combined with RO-3306 treatment (a CDK1 inhibitor that prevents mitotic entry second column) or after UV treatment (performed upon release to induce DNA damage; third column).
For PI, BrdU/PI and ^ser10PH3/PI experiments, cells were fixed in cold 70% Ethanol/PBS and then processed for indirect immunofluorescence, as described above. To detect cyclin B1/PI, MPM2/PI and FLAG/PI, cells were fixed in 3% PFA in PBS at RT for 15 min, permeabilized in 0.5% Triton X-100 for 5 min and processed for indirect immunofluorescence. For DNA staining, cells were treated with 50 μg·mL^−1 RNase A (Sigma, R6513) and stained with 25 μg·mL^−1 propidium iodide.
(§2) To express CDT1, 3T3 cells were transfected with 5 μg of plasmid pCDNA3-CDT1 or empty vector using Nucleofector TN II; Amaxa Biosystem; AAD-1001N. To induce DNA damage, synchronized cells were exposed to UV (0.002 joules) using the Bioblock Scientific BLX-254 upon release or incubated with 2 mM hydroxyurea for 20 hours. To block mitotic progression, 9 μM RO-3306 was added in the medium upon G0/G1 release.

[2] = system: 3T3 cells; assay: Western blotting of cleaved caspase 3 (apoptosis); type: cell-based, mouse; details: synchronized cells, hydroxyurea for 20 hours
Method: as §1
FIG. 32 is a control western blot used as control of the experiment of FIG. 31. […] A: next G1, B: HU and C: U.V. C3*: cleaved caspase 3 and H3: histone H3.
as §2
To prepare total cell extracts, cells were harvested, washed twice with PBS, lysed in 2× Laemmli buffer, sonicated (3×30 seconds) and boiled for 5 min. To obtain chromatin-enriched fractions, a protocol adapted from Lutzmann et al. [Lutzmann et al. 2012 Molecular Cell, 47, 523-534] was used. […]

Row | Structure (SMILES) | appearance of the 1C DNA content cell population [1] | apoptosis (cleaved caspase 3) [2]
1 | O=C1NC(=NCc2cccs2)S/C1=C\c1ccc2ncccc2c1 [RO-3306] | prevented mitotic entry and the appearance of the 10 DNA cell population; also recorded: totally prevented their appearance | –
2 | NC(=O)NO [hydroxyurea] | – | did not induce detectable apoptosis

Reference: US20210155905A1, “Method for Obtaining Haploid Cells” (Centre National de la Recherche Scientifique (CNRS), priority 2017, published 2021)
